Results: US20250171744A1, “METHODS OF REPROGRAMMING SOMATIC CELLS AND MATERIALS RELATED THERETO” (CITY OF HOPE, priority 2019, published 2025)

Columns and labels:
Type in all cases: cell-based, human
[1] = test system: Sox2 and Oct4 (stem cell markers); experiment: qRT-PCR relative transcript levels of stem cell markers (FIG. 21A); details: cell line not given, vs control cells
Experimental: To validate microarray results, quantitative 2-step RT-PCR was performed. One microgram of total RNA was reverse transcribed to first-strand cDNA with the Qiagen cDNA Synthesis Kit (Qiagen), and this cDNA was subsequently used as a template for quantitative PCR with gene-specific primers. The ubiquitous β-actin gene served as a control for constitutive gene expression. The quantitative RT-PCR (qRT-PCR) reactions were performed using Power Sybr Green PCR Master Mix (Thermo Fisher Scientific) on a CFX96 Touch Real-Time PCR Detection System (Bio-Rad, Hercules, CA, USA). Relative expression levels (2^−ΔCt) were calculated according to the Livak and Schmittgen method (40). Expression levels of each gene were compared with the expression level of actin.

[2] = Cardiomyocyte differentiation, correlative immunostaining (FIG. 31); details: MTX Treated; vs H1 positive and untreated negative control
Experimental: (§1) MTX/PTX treated and SSEA4 positive cells were maintained on Matrigel-coated 6-well plates in mTeSR1 medium. To induce differentiation, cells with EB-like morphology were dissociated with Accutase (Invitrogen) at 37° C. for 5 minutes and then single cell suspension was seeded onto a Matrigel-coated cell-culture dish at 100,000 cell/cm^2 in mTeSR1 supplemented with 5 μM ROCK inhibitor (Y-27632) for 24 hours. The cells then were cultured in mTeSR1 medium, which was changed daily. Next, 8 μl of 36 mM CHIR99021 were added into 24 ml RPMI/B27-insulin medium to make 12 μM CHIR99021 RPMI/B27-insulin medium and 2-ml of this were added to each well after the old mTeSR1 medium was removed. Exactly 24 hours after adding CHIR, the medium was replaced with 2 ml room temperature RPMI/B27-insulin. The plate was put back into the 37° C., 5% CO2 incubator. 72 hours post addition of CHIR99021, 1 ml medium from each well was removed and the remaining 1-ml was supplemented with 1-ml RPMI/B27-insulin with 5 μM IWP2 (WNT pathway inhibitor). After 48 hours, the medium was replaced with fresh RPMI/B27-insulin and this was incubated at 37° C., 5% CO2 incubator. After this, every 2-days, the old medium was removed from each well of the 12-well plate and 2 ml/well room temperature RPMI/B27 medium was added and incubated at 37° C., 5% CO2. […]

293T cells = experiment: as above; details: MTX Treated; vs H1 positive and untreated negative control
Experimental: as §1

Question: Which “relative transcripts level of Oct4” value [1] does the source give for `CN(Cc1cnc2nc(N)nc(N)c2n1)c1ccc(C(=O)N[C@@H](CCC(=O)O)C(=O)O)cc1` [MTX, methotrexate] here?
Answer: significantly higher

Question: And the “relative transcripts level of Sox2” value [1]?
Answer: significantly higher

Question: What about the “cardiac muscle cells in the differentiation medium” value [2] of the same compound?
Answer: had cardiac muscle cells

Question: And the “cardiac muscle cells in the differentiation medium” value (293T cells)?
Answer: had cardiac muscle cells
